The test system of series [1] is oral epidermoid (KB) carcinoma cell line. The series can be described thus: Cytotoxicity assay (sulforhodamine B), KB. The note with it: KB cells. It counts as cell-based, human.
Method: (§4) Pure compounds are evaluated against the human cancer cell lines comprising our cytotoxicity screening panel. Cytotoxicity assays involving oral epidermoid (KB), colon (HCT116), prostate (LNCaP), breast (MCF7), Hela (cervical), leukemia (HL-60) melanoma (A375) and lung (A549) carcinoma cell lines, are performed using sulforhodamine B according to established protocols (Zhang et al., Journal of Medicinal Chemistry 2006; 49: 693-708; and Jutiviboonsuk A et al., Phytochemistry 2005; 66: 2745-2751.). KB and A375 cells are maintained in DMEM (Dulbecco's modified Eagle medium) medium. LNCaP and HL60 cells are maintained in RPMI1640 medium with hormone-free 10% heat-activated FBS (fetal bovine serum) supplemented with 0.1 nM testosterone. MCF7 and Hela cells are maintained and assayed in MEME (Minimum Essential Medium Eagle) medium containing 10 mg/L of insulin. HCT116 cells are maintained in McCoy's 5A medium supplemented with 10% fetal bovine serum. A549 cells are maintained in RPMI-1640 medium supplemented with 10% FCS. Serial dilutions of the compounds are prepared using 10% aqueous DMSO as solvent. The 190 μL cell suspension (3×10^4 cells in 1 ml media) is incubated with 10 μL sample solutions, in triplicate, in 96-well tissue culture plate at 37° C. in a humidified atmosphere of 5% CO2 in air for 72 hours. 10 μL 10% aqueous DMSO is used as control group. Then the cells are fixed to plastic substratum by the addition of 100 μL cold 20% aqueous trichloroacetic acid and washing with water after incubation at 4° C. for 30 min. After staining cells with 100 μL of 0.4% sulforhodamine B in 1% aqueous AcOH for 30 min, unbound dye is removed by rinsing with 1% aqueous AcOH. The bound dye is solubilized with 200 μL 10 mM unbuffered Tris base, pH 10, and the optical density is measured at 515 nm using an ELISA plate reader. The average data are expressed as a percentage, relative to the control. The IC50 values, the dose that inhibit cell growth by 50%, are calculated using nonlinear regression analysis (percent survival versus concentration).
For series [2], the system named is lung (A549) carcinoma cell line. The series can be described thus: cells. Format: cell-based, human.
Method: as §4
Series [3] deals with breast (MCF7) carcinoma cell line. The series can be described thus: cells. Format: cell-based, human.
Method: as §4
Series [4] deals with panel of cancer cell lines comprising KB, HCT116, LNCaP, A549, MCF7, HL60, Hela and A375. As to conditions: for IC50: read-out: Cell killing activity, IC50 values range over the panel, range over panel of human cancer cell lines.
The subject of series [5] is colon (HCT116) carcinoma cell line. The series can be described thus: Cytotoxicity assay (sulforhodamine B), HCT116. The note with it: read-out: Cytotoxic activity IC50, HCT116; HCT116 cells, 72 hours.
Method: as §4
Series [6] concerns lung cancer cell line (A549). As to the kind of experiment: Hollow fiber in vivo test, A549. Also noted: species or system mouse. The procedure:
(§1) Hollow fiber tests are well known in the art for providing preliminary indications of therapeutic efficacy (Mi et al. J. Nat. Prod. 2002, 65: 842-850). In hollow fiber tests, human tumor cell lines currently employed in cell cultures are grown inside semipermeable hollow fibers to form heterogeneous solid tumor models. […] By evaluating the test compound's inhibition of tumor cell growth versus the toxic response in the host, a preliminary estimate of therapeutic efficacy is provided in a cost- and time effective manner.

Series [7] deals with colon cancer cell line (HCT116). The series can be described thus: Hollow fiber in vivo test, HCT116. Set-up: species or system mouse. As to the method: as §1
In series [8] the test system is breast cancer cell line (MCF7). As to the kind of experiment: Hollow fiber in vivo test, MCF7. Also noted: species or system mouse. As to the method:
as §1

In series [9] the test system is melanoma cancer cell line (A375). The series can be described thus: Hollow fiber in vivo test, A375. Set-up: species or system mouse. The procedure: as §1
Series [10] relates to cervical cancer cell line (Hela). As to the kind of experiment: Hollow fiber in vivo test, Hela. Set-up: species or system mouse. The procedure:
as §1

The next series relates to HCT116-tumor xenograft. As to the kind of experiment: HCT116 xenograft mouse model. It counts as in vivo. As to conditions: for Inhibition of HCT116 tumor growth (excised tumor weights): every other day for 21 days. The procedure: The treatment started on the 6th day when the HCT116-tumor reached approximately 100 mm^3 (L×W×W). […] All mice died for the maytansine group after the initial two treatments at the dose of 0.1 mg/kg, indicating the highly toxicity of maytansine.

The next series relates to MCF7-tumor xenograft. As to the kind of experiment: MCF7 xenograft mouse model. As to conditions: for Inhibition of MCF7 tumor growth (excised tumor weights): twice a week for 3 weeks. The procedure:
The treatment started on the 12th day when the MCF7-tumor size reached approximately 100 mm^3 (L×W×H). Two doses of MV-A (1.0 and 2.0 mg/kg), paclitaxel (5 mg/kg), and vehicle were administered via i.p. (intraperitoneal), i.v. (intravenous), or oral respectively, to the tumor-bearing mice twice a week for 3 weeks ([…]).
Antitumor animal study. All animal studies were approved and performed according to Animal Care and Use Guidelines of the Animal Ethics Committee at Hong Kong Baptist University and performed following Animal Care and Use guidelines set by NIH (National Institute of Health, USA). BALB/c nude mice, SPF class, male or female, 5-6 weeks old, were purchased from Charles River Laboratories. Before the experiment, it is one week of acclimatization to SPF class laboratory conditions. MV-A is tested for its anticancer activity against HCT116 and MCF7 cancer cells using a number of nude mice (Balc/nu/nu, female) in comparison of paclitaxel and maytansine. HCT116 or MCF7 cancer cells are subcutaneously implanted with 5×10^6 cells in the rear flank of each mouse. Female mice receiving MCF-7 cells are implanted with an s.c. pellet of 17β-estradiol (0.72 mg/pellet) a few days prior to injection to induce tumors. […] The mice are divided into 5 groups for HCT116 cancer cells: one high dose (1.0 mg/kg: 10 mice) group of MV-A, one low dose (0.5 mg/kg: 10 mice) group of MV-A, one dose (5.0 mg/kg: 10 mice) of paclitaxel, one dose of maytansine (0.1 mg/kg) and one dose of vehicle (negative control: 10 mice). The mice are then divided into 4 groups for MCF7 cancer cells: one high dose (2.0 mg/kg: 10 mice) group of MV-A, one low dose (1.0 mg/kg: 10 mice) group of MV-A, one dose (5.0 mg/kg: 10 mice) of paclitaxel, and one dose of vehicle (negative control: 10 mice). Every other day administration via i.p. (intraperitoneal), i.v. (intravenous), or oral, respectively are scheduled for 21 days for the HCT116 groups. Twice a week injections administered via i.p. (intraperitoneal), i.v. (intravenous), or oral, respectively are scheduled for […] for the MCF7 groups. Weights of mice and tumor diameters are measured twice a week until the end of the experiment. The tumor size in mm^3 was calculated by the formula: tumor size=length×width×height (L×W×H).

The subject of series [11] is 3T3-L1 murine adipocytes. As to the kind of experiment: 3T3-L1 fat accumulation (triglyceride) assay. It counts as cell-based. As to conditions: differentiated 3T3-L1 adipocytes, 7 days, read-out: Anti-obesity activity (fat accumulation) EC50. As to the method: (§2) MV-A, MV-B, MV-C and MV-D are evaluated for their anti-obesity effects in 3T3-L1 murine adipocytes. 3T3-L1 cells are cultured in the presence of insulin to induce adipocyte differentiation.
(§3) Pure compounds are evaluated against 3T3-L1 cell line for their potential anti-obesity activity. […] After the cells reach 100% confluence, the culture medium is changed to a differentiation DMEM medium containing 10% FCS, […], 0.5 mM 3-isobutyl-1-methylxanthine (IBMX), 90 U/mL penicillin, […] and 10 μg/mL insulin for induction of the adipocyte form of the 3T3-L1 cells. After 2 days, the differentiation medium is changed back to the normal DMEM medium and refreshed with the normal medium every 2 days. After incubation of additional 7 days, the cells are seeded in two sets of 96-well plates (about 10,000 cells per well). The test compounds in different concentrations are then added to the wells with 0.5% aqueous DMSO as control group. After incubation of 7 days, the differentiated 3T3-L1 adipocytes are treated with 2% Triton-X 100 ([…]) for 30 min at room temperature followed by sonication for 1 min. Fat accumulation is determined by measuring the liberated triglyceride using a Wato Triglyceride E-test Kit with the absorbance at 630/690 nm. The fat-accumulation rate is calculated as a percentage of the DMSO control. […] The cell viability of the differentiated 3T3-L1 adipocytes in another 96-well plate is treated with a Wako Cell Counting Kit-8 Test and measured with the absorbance at 450 nm. The cell viability is calculated as a percentage of the control.

In series [12] the test system is 3T3-L1 murine adipocytes. The series can be described thus: 3T3-L1 adipocyte cell viability. Format: cell-based. The note with it: differentiated 3T3-L1 adipocytes. As to the method: as §2, §3
The nature of series [13]: Body weight of mice after drug treatment. The note with it: 1 mg/kg and 2 mg/kg.

*1 amine or outer side, *2 acyl side, *3 side chain or, on linkers, in order; H or OH if unused. Where a SMILES comes first, the peptide text is derived from it. [ ]: non-standard residue; d: D form. X2 = C[C@@H]1C([C@@H](N[*:1])C(=O)[*:2])[C@H]1C; X1 = C[C@@H]1C([C@H](N[*:1])C(=O)[*:2])[C@H]1C; X3 = CC1C(C)C1C(N[*:1])C(=O)[*:2]; NMeL = CN[CH](CC(C)C)C(=O)O; NMeA = CN[CH](C)C(=O)O; dNMeA = CN[C@H](C)C(=O)O

For the compound `CC(C)CC1NC(=O)C(C)N(C)C(=O)C(C)N(C)C(=O)C(C2C(C)C2C)NC(=O)C(CC(C)C)N(C)C(=O)C(C)N(C)C(=O)C(CC(C)C)NC1=O` (stereo not shown) [Compound 3] (cyclo([X3][NMeA][NMeA]LL[NMeA][NMeL]); configuration not given here), the IC50 in series [1] (72 hours, read-out: Cytotoxic activity IC50, KB) was 12.5 nM; in series [2] (72 hours, read-out: Cytotoxic activity IC50, A549), 51.8 nM; in [3] (72 hours, read-out: Cytotoxic activity IC50, MCF7), 26.6 nM; in [5], 43.5 nM. Also, the “Reduction in activity in comparison with 1” value in series [4] (compound with only one DMCPA residue versus 1) is on record as “at least 100 times”.
As for `CC(C)C[C@H]1NC(=O)[C@@H](C)N(C)C(=O)[C@H](C)N(C)C(=O)[C@H](C2[C@@H](C)[C@@H]2C)NC(=O)[C@H](CC(C)C)N(C)C(=O)[C@H](C)N(C)C(=O)[C@@H](C2[C@@H](C)[C@@H]2C)NC1=O` (stereo partly drawn) [MV-A] (cyclo([NMeA][NMeL][X1][NMeA][dNMeA][dL][X2])), the “Inhibition (%)” value in [6] (A549-IP, 0.05 mg/kg) was determined as 18.2%; in series [6] (A549-IP, 0.1 mg/kg) it was 56.6%; in [6] (A549-SC, 0.05 mg/kg), 0%; in series [6] (A549-SC, 0.1 mg/kg), 36.4%; in series [7] (HCT116-IP, 0.1 mg/kg), 33.1%; in series [7] (HCT116-IP, 0.2 mg/kg), 53.3%. The “Inhibition (%)” value in series [7] (HCT116-IP, 0.8 mg/kg) was determined as 65.0%; in [7] (HCT116-SC, 0.1 mg/kg), 0%; in series [7] (HCT116-SC, 0.2 mg/kg), 15.1%; in [7] (HCT116-SC, 0.8 mg/kg), 12.7%; in series [8] (MCF7-IP, 0.05 mg/kg), 65.9%; in series [8] (MCF7-IP, 0.1 mg/kg) it was 76.8%. Also, the “Inhibition (%)” value in [8] (MCF7-IP, 0.2 mg/kg) turned out to be 68.3%; in series [8] (MCF7-IP, 0.4 mg/kg), 66.7%; in [8] (MCF7-SC, 0.05 mg/kg), 0%; in [8] (MCF7-SC, 0.1 mg/kg), 0%; in series [8] (MCF7-SC, 0.2 mg/kg), 13.9%; in series [8] (MCF7-SC, 0.4 mg/kg) it was 56.0%. The “Inhibition (%)” value is 35.3% in [9] (A375-IP, 0.2 mg/kg); 67.4% in series [9] (A375-IP, 0.4 mg/kg); 17.2% in [9] (A375-SC, 0.2 mg/kg); 27.8% in series [9] (A375-SC, 0.4 mg/kg); 45.8% in series [10] (Hela-IP, 0.2 mg/kg); 82.7% in [10] (Hela-IP, 0.4 mg/kg). Further, the “Inhibition (%)” value turned out to be 23.2% in [10] (Hela-SC, 0.2 mg/kg) and 52.8% in series [10] (Hela-SC, 0.4 mg/kg). For the same compound, the “Inhibition of HCT116 tumor growth (excised tumor weights)” value with HCT116-tumor xenograft (0.5 mg/kg (low dose)) came out at 31.1%; in the series with HCT116-tumor xenograft (1.0 mg/kg (high dose)), 52.8%. In addition, the “Weight loss of mice after the first two treatments” value in the series on HCT116-tumor xenograft (HCT116 xenograft, 0.5 and 1.0 mg/kg groups) is 1 to 2 g; in the series with MCF7-tumor xenograft (MCF7 xenograft, 1.0 and 2.0 mg/kg groups), 1 to 2 g. The results for the “Inhibition of MCF7 tumor growth (excised tumor weights)” value in the series with MCF7-tumor xenograft (1.0 mg/kg (low dose)) and in the series with MCF7-tumor xenograft (2.0 mg/kg (high dose)) were 48.1% and 72.6%, respectively. Also, in the series with 3T3-L1 murine adipocytes [11], the EC50 came out at 0.3 nM. For the same compound, the IC50 is 12.9 nM in the series on 3T3-L1 murine adipocytes [12] and 0.05 to 1.5 nM in series [4]. Also, the “Mortality during the treatments” value in series [13] was “No mice die”. The “Toxicity observed from dissection of the mice” value in series [13] is on record as “No sign of toxicity”. Also, the “Drop of average weight of mice after the first two treatments” value in series [13] (intravenous, intraperitoneal or oral) was 1 to 2 g.
Take `CC(C)C[C@H]1NC(=O)[C@@H](C)N(C)C(=O)[C@H](C)N(C)C(=O)[C@H](C2[C@@H](C)[C@@H]2C)NC(=O)[C@H](CC(C)CO)N(C)C(=O)[C@H](C)N(C)C(=O)[C@@H](C2[C@@H](C)[C@@H]2C)NC1=O` (stereo partly shown) [MV-B]: the EC50 in the series with 3T3-L1 murine adipocytes [11] was 2.6 nM. Also, the IC50 in the series with 3T3-L1 murine adipocytes [12] is 83.7 nM; in series [4] it was 0.7 to 9.1 nM.
In the case of `CC(C)C[C@H]1NC(=O)[C@@H](C)N(C)C(=O)[C@H](C)N(C)C(=O)[C@H](C2[C@@H](C)[C@@H]2C)NC(=O)[C@H](CC(C)C)N(C)C(=O)[C@H](C)N(C)C(=O)[C@@H](CC(C)C)NC1=O` (stereo partly drawn) [MV-C] (HELM PEPTIDE1{[meA].[meL].[C[C@@H]1C([C@H](N[*:1])C(=O)[*:2])[C@H]1C].[meA].[C[C@H](C(=O)[*:2])N(C)[*:1]].[dL].[dL]}$PEPTIDE1,PEPTIDE1,1:R1-7:R2$$$V2.0), the EC50 in the series on 3T3-L1 murine adipocytes [11] is 38.9 nM. The IC50 in the series on 3T3-L1 murine adipocytes [12] was 689 nM; in series [4], 12 to 60 nM.
With `CC[C@]1(O)C[C@@H]2CN(CCc3c([nH]c4ccccc34)[C@@](C(=O)OC)(c3cc4c(cc3OC)N(C)[C@H]3[C@@](O)(C(=O)OC)[C@H](OC(C)=O)[C@]5(CC)C=CCN6CC[C@]43[C@@H]65)C2)C1` [Vinblastine, reference compound], the “Cytotoxic activity IC90, KB” value in series [1] is 10.1 nM. Also, the IC90 was above 40 nM in series [2] (Homo sapiens, read-out: Cytotoxic activity IC90, A549) and above 50 nM in series [3] (Homo sapiens, read-out: Cytotoxic activity IC90, MCF7).

As usually defined, the IC50 is the concentration needed to halve the response being measured. What is called EC50 is the concentration at which the effect is half-maximal. For orientation: IC90 means the concentration at which the effect reaches the 90% level.
